The numbers were not newly measured in patent US20060264388A1, “Method for treating liver cancer by intrahepatic administration of nemorubicin” (priority 2003, published 2006), which cites them from elsewhere.

Where a name gives a salt, the structure may show the parent alone.

This data set deals with metastatic colorectal cancer. To be noted: after failure of 5-FU leucovorin; cited from earlier work.

Regarding `CCc1c2c(nc3ccc(OC(=O)N4CCC(N5CCCCC5)CC4)cc13)-c1cc3c(c(=O)n1C2)COC(=O)[C@]3(O)CC` [Irinotecan hydrochloride trihydrate], the median survival time result was “approximately 9 months” and the response rate was 15%.
